Structures are written as SMILES. Entries after “also recorded” stand apart in the source; their conditions may differ.

What all share (type): in vivo, C57BL/6 mice
In data set [1] the test system is MC38 tumor immune infiltrates. Nature of the data set: Flow cytometry of MC38 tumor immune infiltrates. Conditions: MC38 tumors. On the procedure: (§1) Figure 5 M029 inhibits syngeneic MC38 tumor growth by promoting infiltration and activation of both T cells and NK cells in the tumor microenvironment. […] This T cell activation was further supported by i) the increased effector CD8^+ population in the tumor microenvironment. […] Statistical analyses were performed with Graphpad Prism software 10.4.2 through the student t test or the one‐way ANOVA test using Turkey post‐hoc comparison. *p < 0.05, **p < 0.01, ***p < 0.001, and ****p < 0.0001 were considered significant. Figures are plotted as average ± standard error of the mean (SEM).
To elucidate the mechanism by which M029 elicits its antitumor activity, we analyzed the immune cell population within the tumor samples. […] This observation is in line with earlier reports that SHP1 activity contributes to LAIR1‐mediated T cell exhaustion.^[ [91] ^]
For immune cell profiling in the tumor microenvironment, tumor samples were first reduced to single-cell suspensions by compressing the tumors through a 70 µm filter (Falcon, #352350) into cold 1× PBS supplemented with 5 mM EDTA using the plunger of a syringe (HSW, #4010-200V0). Samples were strained through a second filter and then re-suspended in cold blocking buffer made of 5% BSA, 0.5 mM EDTA, and a 1:1000 dilution of CD16/32. Samples were then incubated with following fluorophore-conjugated antibodies. CD4-488 (Biolegend #100423), CD8a-PE (Biolegend #100708), CD45-PeCy7 (Biolegend #103114), CD25-BV605 (Biolegend #102035), CD44-647 (Biolegend #103039), CD19-488 (Biolegend #115524), NK1.1-647 (Biolegend #108719), CD3-PeCy5 (Biolegend #100273), CD8-BV711 (Biolegend #100747), CD4-PeCy5 (Biolegend #100409), CD69-FITC (Biolegend #104505), FoxP3-488 (Biolegend #126405), Perforin-APC (Biolegend #154303), CD62L-BV605 (Biolegend #104437), TIM3-PerCP/Cy5.5 (Biolegend #134011), PD1-647 (Biolegend #109118), CD11b-BV711 (Biolegend #101241), CD206-FITC (Biolegend #141704), F4/80-647 (Biolegend #123122), CD86-PE (Biolegend #159203), CD11c-BV421 (Biolegend #117329), Ly6G-488 (Biolegend #127625), CD11b-APC (Biolegend #101211), Ly6C-PE (Biolegend #128007), F4/80-BV711 (Biolegend #123147), IL2-BV421 (Biolegend #503825), IFNγ-BV605 (Biolegend #505839), TNFα-APC (Biolegend #506307). The following antibodies were used for depletion studies: anti-CD8α (BioXCell #BE0061) and anti-NK1.1 (BioXCell #BE0036). Samples were incubated with antibodies at a 1:600 dilution in blocking buffer on ice for two hours. After staining, samples were washed and re-suspended in 5% BSA, 0.5 mM EDTA solution, then added to a 5 mL polystyrene tube for analysis (Falcon, #352235). Sample data was acquired using a BD LSRFortessa Cell Analyzer, and results were analyzed using FlowJo.

Data set [2] has as its system MC38 colorectal tumors. Nature of the data set: MC38 syngeneic tumor model. Conditions: IP 15 mg/kg as printed in Figure S5.
Data set [3] relates to MC38 colorectal tumors. Nature of the data set: MC38 syngeneic tumor model. As to the method: Given its favorable PK profiles, we evaluated the antitumor activity of M029 in C57BL/6 mice bearing MC38 colorectal tumors. Mice bearing established tumors were given once daily with either saline, 25 mg/kg (IP), 25 mg/kg (PO), or 100 mg/kg (PO) M029.
as §1
All the in vivo studies were performed under an animal protocol (1511001324) approved by the Institutional Animal Care & Use Committee of Purdue University, in accordance with the recommendations in the Guide for the Care and Use of Laboratory Animals of the National Institutes of Health. For PK study, C57BL6 female mice (25-30g body weight) were injected intraperitoneally, orally, or intravenously with 25 mg/kg M029 dissolved in 0.4 ml saline. Blood samples were collected through the tail vein at the indicated time points after injection. Isoflurane was used as an anesthetic. All blood samples were centrifuged at 1,500 g for 5 minutes, and plasma was separated and stored at –80°C until analysis by a validated method based on reversed-phase liquid chromatography coupled to mass-spectrometric detection (LC/MS) using a previously published procedure.^169 For the MC38 syngeneic tumor study, 12-week-old C57BL6 female mice were injected subcutaneously with […] MC38 cells in the right and left flanks for tumor growth. When tumors reached an average volume of 100 mm^3 mice were tumor size-matched and randomly assigned to different experimental groups for experiments. Four mice with eight tumors were used in each treatment group. Mice were injected orally with saline or 25 or 100 mg/kg M029 daily. Tumor sizes and animal weights were measured twice per week. Tumor volume (mm^3) = (length X width^2)/2. At the end of the experiments, mice were euthanized, and tumors were collected for analysis. Among eight tumors collected from each group, four homogenous samples and […] were prepared for Western blots and histology analysis.

Regarding `N#Cc1ccsc1NS(=O)(=O)c1ccc(NC(=O)CCl)cc1` [M029, 2-Chloro-N-(4-(N-(3-cyanothiophen-2-yl)sulfamoyl)phenyl)acetamide], in data set [1], the “late exhaustion T cells (PD1+TIM3+)” value is “a decline” and the “pre-exhausted PD1+TIM3− T cells” value was “increased”. Also, in data set [1] (25 mg/kg), the “activation marker CD25 on infiltrating CD8+ T cells” value is listed as “higher expression”, the “activation of tumor-infiltrating NK cells (CD69)” value is listed as “significantly more activated”, the “cytotoxicity marker perforin on infiltrating CD8+ T cells” value is “higher expression” and the “effector markers CD44+CD62L− on infiltrating CD8+ T cells” value is recorded as “higher expression”. Further, the “infiltration of cytotoxic CD8+ T cells” value in data set [1] (25 mg/kg) is recorded as “increased infiltration”. In data set [1] (25 mg/kg, vs control), the “increase of CD3+ T cells in tumor” value is recorded as roughly 33% and the “increase of NK1.1+ NK cells in tumor” value is given as roughly 100%. The “MC38 tumor progression, IP dosage” value in the data set with MC38 colorectal tumors [2] was “delayed MC38 tumor progression”. Further, the body weight entry in the data set with MC38 colorectal tumors [3] (25 or 100 mg/kg oral) is listed as “no significant changes”. For the same molecule, the “tumor volume and tumor weight” value with MC38 colorectal tumors [3] (25 or 100 mg/kg oral vs vehicle) was “significant decreases”. Moreover, the “kidney and liver tissue sections” value in the data set on MC38 colorectal tumors [3] (IP dosing, Figure S5) is recorded as “No significant lesion or tissue changes”. The “MC38 tumor progression, 25 mg/kg IP” value in the data set with MC38 colorectal tumors [3] (once daily IP injection 25 mg/kg) is recorded as “effectively halted tumor progression”. Also, the “MC38 tumor progression, 25 mg/kg PO” value with MC38 colorectal tumors [3] (once daily oral gavage 25 mg/kg, 25 mg/kg) was “effectively halted tumor progression; also recorded: significantly delayed”. In the data set on MC38 colorectal tumors [3] (once daily oral gavage 100 mg/kg, 100 mg/kg), the “MC38 tumor progression, 100 mg/kg PO” value is reported as “effectively halted tumor progression; also recorded: significantly delayed”. Moreover, in the data set with MC38 colorectal tumors [3] (up to 100 mg/kg, body weight and organ histology), the signs of toxicity result is reported as “no obvious signs of toxicity”.

Values taken from article PMC12833730, “Discovery of a First‐in‐Class Covalent Allosteric SHP1 Inhibitor with Immunotherapeutic Activity” (Angewandte Chemie (International Ed. in English), 2025).
